Assay results reported in patent US20050197331A1, “Novel anti-inflammatory and analgesic heterocyclic amidines that inhibit nitrogen oxide (NO) production” (ROTTAPHARM SPA, priority 2004, published 2005).
“And” between values parts separate entries of the source, which are not always exact repeats. Identical values can stand only once. Counter-ions that a name gives are not always drawn. Like-named read-outs stand apart in the source and are kept apart here.

Legend:
[1] = tested on: formation of NO measured as NO2^− (nitrite); assay: Inhibition of NO (nitrite) formation in rabbit articular chondrocytes stimulated with IL-1β; format: cell-based
Description: (§1) a) The inhibitory activity on the formation of NO measured as NO2^− (nitrite) and PGE2 was studied in vitro on culture media of rabbit articular chondrocytes stimulated with the cytokine IL-1β (1 ng/ml) for 48 hours. For the preparation of the chondrocytes, the method described by Berenbaum et al. [FEBS Letters 340, 51-55 (1994)] was followed. Briefly, fragments of cartilage removed aseptically from the articular heads of rabbit shoulder, hip and knee were finely ground and digested at 37° C. in hyaluronidase, trypsin and collagenase solutions, giving, after filtration through sterile gauze and centrifugation at 600×g and suitable dilution with 10% DMEM-FCS 10%, a concentration per well of about 1×10^5 cells. The cells were maintained under these conditions until confluent (about 15 days), the medium being replaced every 3 days. At this point, the test products dissolved in the medium were added to each sample and, after 20 minutes, 350 μl of IL-1β were added, to give a final concentration of 1 ng/ml. The stimulation lasted 48 hours at 37° C. (incubation in air/7% CO2). A nitrite assay was subsequently performed on the cell supernatant, as described by Green et al. [Anal. Biochem. 126, 131-138 (1982)], and of PGE2 by RIA assay. The results obtained are shown in Table 3, in which is given, for a number of the compounds that are the subject of the invention and that are already illustrated in Table 1, the IC50, i.e. the concentration (micromolar) of antagonist capable of inhibiting the formation of nitrites and PGE2 by 50% relative to the control group, i.e. relative to the cells stimulated with IL-1β but without addition of antagonists.

[2] = tested on: rat paw injected with Zymosan; assay: Zymosan-induced mechanical hyperalgesia in rats (Randall-Selitto); format: in vivo; settings: os, 0-6 hours, dose increasing pain threshold by 30%
Description: (§2) This is a phlogogenic agent, consisting of a protein-glycoside complex, extracted from the cell walls of raw yeast, which is capable of inducing rapid degranulation of neutrophils, an increase in the production of TNF-α, interleukin-1 (IL-1), IL-6 and stimulation of NO generation by monocytes and macrophages (ZymosaN:Merck Index XIII ed. No. 10250, p. 1818).
(§3) The experiments consisted of sub-plantar intradermal injection into the animal of 4 mg of Zymosan suspended in 100 μl of sterile physiological solution, while the test compounds were administered orally 30 minutes before injection of the phlogogenic agent.
(§4) Measurement of the inflammation of the injected paw and of the consequent hyperalgesic effects was performed 2, 4 and 6 hours after the administration of Zymosan. The oedema was evaluated as the increase in volume of the injected paw within the period 0-6 hours, relative to the initial value of the volume of the paw, i.e. before the injection of Zymosan (basal value).
The hyperalgesia induced by the intradermal administration of Zymosan was evaluated on these animals and at the same times described previously for the evaluation of the oedema, using the Randall-Selitto method [Arch. Int. Pharmacodyn. 111, 409 (1957)].
When the animal makes a noise following the pain stimulus, the operator blocks the punch and records the force, expressed in grams, which was applied to the paw (the cut-off value is 500 grams). The difference in the meal chanical pain threshold between the basal value (generally about 230-250 grams) and that recorded at the indicated times after injection of the phlogogenic agent, generally 130-140 g for the control animals 6 hours after injection of the phlogogenic agent, is defined as mechanical hyperalgesia. In this case also, an ED30 was calculated, i.e. the dose in mg/kg capable of increasing the pain threshold by 30% (meal chanical hyperalgesia) in the animals treated with the test compounds relative to the group of control animals.

[3] = tested on: rat paw injected with Zymosan; assay: Zymosan-induced paw oedema in rats; format: in vivo; settings: for Anti-inflammatory activity (oedema) ED30 / Mean (Oedema + Analgesia) ED30: os, 0-6 hours; for Anti-inflammatory activity (oedema) ED30: dose reducing volume increase by 30%; for Mean (Oedema + Analgesia) ED30: mean of oedema and analgesia ED30; for anti-inflammatory and anti-hyperalgesic action (in words): Zymosan, administered orally, L-NAME up to maximum dose 50 mg/kg
Description: as §2, §3, §4
The measurements of the variation of the volume of the paw were recorded using a hydroplethysmometer (Mod. 7150, Basile, Italy), which consists of two plastic cuvettes containing a surfactant liquid, the larger one being used for immersion of the paw, connected to the smaller one which contains a transducer capable of recording small displacements of volume of the liquid used for the measurement. The paw is immersed in the cuvettes up to the tibiotarsal joint. The volume of liquid displaced by the paw indicates the magnitude of the inflammation.
For each test compound, at least three doses were used (generally 10, 20 and 40 mg/kg) with at least five animals per group×dose, so as to be able to calculate an ED30, i.e. the dose in mg/kg capable of reducing by 30% the Zymosan-induced volume increase, relative to the group of control animals, i.e. animals injected only with the phlogogenic agent and treated orally with distilled water.

PGE2 = assay: Inhibition of PGE2 formation in rabbit articular chondrocytes stimulated with IL-1β (RIA); format: cell-based; settings: for IC50: Oryctolagus cuniculus, Chondrocyte
Description: as §1

IL-6 = assay: Inhibition of IL-6 expression (mRNA) in SW 1353 cells stimulated with IL-1β, Real Time PCR; format: cell-based; settings: Homo sapiens, SW1353; SW 1353 cells stimulated for 6 hours with IL-1β
Description: In practice, the RNA extracted from the cells was back-transcribed to c-DNA by means of a thermocycler (BioRad—“iCycler”) and subsequently amplified via the Real Time PCR technique using a probe and a primer specific for IL-6, from the company Applied Biosystem, and the thermocycler 7000 Sequence Detection System (Applied Biosystem).
The capacity […] may be considered as large, since the increase in the expression of this cytokine is associated with the physiopathology of various human diseases, for instance Crohn's disease, as described previously.

[4] = rabbit articular chondrocytes stimulated with IL-1β
[5] = rabbit articular chondrocytes, IL-1β 1 ng/ml, 48 hours, RIA, read-out: Inhibition % IC50 PGE2
[6] = Oryctolagus cuniculus, Chondrocyte, rabbit articular chondrocytes stimulated with IL-1β, read-out: IC50, production of NO
[7] = Oryctolagus cuniculus, Chondrocyte, rabbit articular chondrocytes, IL-1β 1 ng/ml, 48 hours, nitrite in supernatant, read-out: Inhibition % IC50 NO
[8] = rabbit articular chondrocytes stimulated with IL-1β, read-out: IC50, formation of PGE2

Row | SMILES | IC50 (PGE2; [5]) [µM] | IC50 [1, 7] [µM] | melting point | IC50 (IL-6) [µM] | Analgesic activity (mechanical anti-hyperalgesia) ED30 [2] | Anti-inflammatory activity (oedema) ED30 [3] | Mean (Oedema + Analgesia) ED30 [3] | other results
1 | Cc1ccc(-c2cc(C(F)(F)F)nn2-c2ccc(S(N)(=O)=O)cc2)cc1 [Celecoxib, reference compound] | 0.02 |  |  |  | 69.2 mg/kg | 79.4 mg/kg | 74.3 mg/kg | inhibiting the production of NO (in words) [1, 4]: entirely inactive
2 | CC(=N)Nc1ccc2nc(-c3ccccc3)sc2c1 [Compound 1, N-(2-phenylbenzothiazol-6-yl)acetamidine] | 2.4 | 6.5 | 161 to 162.1 °C |  | 6.7 mg/kg | 12.6 mg/kg | 9.7 mg/kg | IC50 [1, 6]: 3 to 8 µM; anti-inflammatory and anti-hyperalgesic action (in words) [3]: powerful anti-inflammatory and anti-hyperalgesic action
3 | CC(=N)Nc1ccc2[nH]c(-c3ccccc3)cc2c1 [Compound 5, N-(2-phenyl-1H-indol-5-yl)acetamidine] | 1.2 | 3.4 | 217.7 to 220 °C and 218 to 220 °C | 1.5 to 6 | 19.3 mg/kg | 39.4 mg/kg | 29.4 mg/kg | IC50 [1, 6]: 3 to 8 µM; anti-inflammatory and anti-hyperalgesic action (in words) [3]: powerful anti-inflammatory and anti-hyperalgesic action
4 | CC(=N)Nc1ccc2nc(-c3ccccc3)ccc2c1 [Compound 8, N-(2-phenylquinol-6-yl)acetamidine] | 2.3 | 47.9 | 143 to 144.4 °C | 1.5 to 6 | 11.8 mg/kg | 19.8 mg/kg | 15.8 mg/kg | anti-inflammatory and anti-hyperalgesic action (in words) [3]: powerful anti-inflammatory and anti-hyperalgesic action
5 | CC(=N)Nc1ccc2sc(-c3ccccc3C)nc2c1 [Compound 18, N-[2-(2-methylphenyl)benzothiazol-5-yl]acetamidine] | 1.2 | 6.2 | 188.4 to 189.8 °C | 1.5 to 6 |  |  |  | IC50 [1, 6]: 3 to 8 µM
6 | CC(=N)Nc1ccc2nc(-c3ccccc3)ncc2c1 [Compound 27, N-(2-phenylquinazolin-6-yl)acetamidine dihydrochloride] | 9 | 67.5 |  | 1.5 to 6 | 13.0 mg/kg | 24.6 mg/kg | 18.8 mg/kg | anti-inflammatory and anti-hyperalgesic action (in words) [3]: powerful anti-inflammatory and anti-hyperalgesic action
7 | CC(=N)Nc1ccc2oc(-c3ccccc3)nc2c1 [Compound 29, N-(2-phenylbenzoxazol-5-yl)acetamidine] | 3.2 | 28.6 | 171.2 to 173.4 °C | 1.5 to 6 |  |  |  | 
8 | CC(=N)Nc1ccc2oc(-c3cccc(C(F)(F)F)c3)nc2c1 [Compound 31, N-[2-(3-trifluromethylphenyl)benzoxazol-5-yl]acetamidine] | 2.9 | 11.2 | 157.9 to 159.2 °C |  |  |  |  | 
9 | CC(=N)Nc1ccc2oc(-c3ccc(C(F)(F)F)cc3)nc2c1 [Compound 32, N-[2-(4-trifluromethylphenyl)benzoxazol-5-yl]acetamidine] | 0.6 | 8.1 | 179.2 to 181 °C |  |  |  |  | 
10 | COC(=O)[C@@H](N)CCCNC(=N)N[N+](=O)[O-] [L-NAME, N^G-nitro-L-arginine methyl ester, reference compound] |  |  |  |  | IN (the compound L-NAME was entirely inactive up to the maximum dose administered (50 mg/kg)) | IN (the compound L-NAME was entirely inactive up to the maximum dose administered (50 mg/kg)) | IN (the compound L-NAME was entirely inactive up to the maximum dose administered (50 mg/kg)) | activity on NO production, fold less powerful than the best compounds of the invention [1, 4]: about 10 fold; IC50 ([1]; rabbit articular chondrocytes stimulated with IL-1β, read-out: IC50, production of NO): 71 µM; anti-inflammatory and anti-hyperalgesic action (in words) ([3]; 50 mg/kg): inactive; Inhibition % IC50 PGE2 (PGE2; rabbit articular chondrocytes, IL-1β 1 ng/ml, 48 hours, RIA): IN (IN = <25% inhibitory activity at 30 × 10^−6M)

Second part, led by results:

Row | IC50 (PGE2; [5]) [µM] | IC50 [1, 7] [µM] | melting point | IC50 (IL-6) [µM] | SMILES | Analgesic activity (mechanical anti-hyperalgesia) ED30 [2] | Anti-inflammatory activity (oedema) ED30 [3] | Mean (Oedema + Analgesia) ED30 [3] | other results
11 | 13.8 | 47 | 157.9 to 159.2 °C |  | CC(=N)Nc1ccc2oc(-c3ccccc3F)nc2c1 [Compound 33, N-[2-(2-fluorophenyl)benzoxazol-5-yl]acetamidine] |  |  |  | 
12 | 0.4 | 4.3 | 182 to 184 °C |  | CC(=N)Nc1ccc2oc(-c3ccc(Cl)c(Cl)c3)nc2c1 [Compound 34, N-[2-(3,4-dichlorophenyl)benzoxazol-5-yl]acetamidine] |  |  |  | IC50 [1, 6]: 3 to 8 µM; IC50 (PGE2; [8]): 0.3 to 0.8 µM
13 | 0.4 |  | 207.4 to 209 °C |  | CC(=N)Nc1ccc2[nH]c(-c3ccc(Cl)c(Cl)c3)nc2c1 [Compound 35, N-[2-(3,4-dichlorophenyl)benzimidazol-5-yl]acetamidine] |  |  |  | inhibiting the production of NO (in words) [1, 4]: little activity; IC50 (PGE2; [8]): 0.3 to 0.8 µM; IC50, formation of PGE2 (PGE2; [4]): sub-micromolar
14 | 2.8 | 32.1 | 190.5 to 192.8 °C |  | COc1ccccc1-c1nc2cc(NC(C)=N)ccc2[nH]1 [Compound 37] |  |  |  | 
15 | 9.9 | 199 | 154 to 158 °C |  | CC(=N)Nc1ccc2[nH]c(-c3ccccc3C)nc2c1 [Compound 39, N-[2-(2-methylphenyl)benzimidazol-5-yl]acetamidine] |  |  |  | 
16 | 5.1 | 42.9 | 176.3 to 177.8 °C |  | CC(=N)Nc1ccc2nc(-c3ccccc3)oc2c1 [Compound 42, N-(2-phenylbenzoxazol-6-yl)acetamidine] |  |  |  | 
